Measured values: patent US20240076609A1, “COMPOSITIONS AND METHODS FOR CULTURING AND EXPANDING CELLS” (LIFE TECHNOLOGIES CORPORATION, priority 2017, published 2024)
Where “and” joins values, the source holds several entries; their conditions need not be identical. Equal entries are not always repeated.

Columns and labels:
[1] = test system: Primary human T cells; experiment: CD8+/CD4+ phenotype with 2-DG at different time points and every feed; format: cell-based; settings: for Fold Increase compared to Baseline: Day 10 vs Day 0 ratio
Experimental: FIG. 45 represents the data shown in Table 39 which highlights the fold increase in CD8+ to CD4+ ratio of T cells cultured with 2-DG at different time points and every time the cells were fed.
(§1) Phenotype: Primary human T cells were expanded for 10 days with and without 2-DG and 5% human AB serum. DYNABEADS® were removed from 2×10^6 cells by magnetic separation. Surface staining was performed with antibodies against CD3 (Invitrogen, Cat. No. CD0329), CD4 (Molecular Probes, Cat. No. A15858), CD8 (Invitrogen, Cat. No. MHCD0828). Flow cytometric analysis was performed on a Gallios flow cytometer and Kaluza software (Beckman Coulter, Indianapolis IN).

[2] = test system: Naïve T cells; experiment: CD8+/CD4+ phenotype after 10 days with 2-DG in naïve T cells; format: cell-based, human; settings: 4 mM 2-DG
Experimental: For some studies, CD8+ and CD4+ T cells were isolated from PBMCs by negative selection using Untouched Human CD8+ and CD4+ T Cells Kits. Naïve and non-naïve T cells were isolated from enriched T cells by positive selection using CD45RA nanobeads (Miltenyi). Phenotype: Primary human T cells were expanded for 10 days with and without 2-DG and 5% human AB serum. DYNABEADS® were removed from 2×10^6 cells by magnetic separation. Surface staining was performed with antibodies against CD3 (Invitrogen, Cat. No. CD0329), CD4 (Molecular Probes, Cat. No. A15858), CD8 (Invitrogen, Cat. No. MHCD0828). Flow cytometric analysis was performed on a Gallios flow cytometer and Kaluza software (Beckman Coulter, Indianapolis IN). For some studies, CD8+ and CD4+ T cells were isolated from PBMCs by negative selection using Untouched Human CD8+ and CD4+ T Cells Kits. Naïve and non-naïve T cells were isolated from enriched T cells by positive selection using CD45RA nanobeads (Miltenyi). Phenotype: Primary human T cells were expanded for 10 days with and without 2-DG and 5% human AB serum. DYNABEADS® were removed from 2×10^6 cells by magnetic separation. Surface staining was performed with antibodies against CD3 (Invitrogen, Cat. No. CD0329), CD4 (Molecular Probes, Cat. No. A15858), CD8 (Invitrogen, Cat. No. MHCD0828). Flow cytometric analysis was performed on a Gallios flow cytometer and Kaluza software (Beckman Coulter, Indianapolis IN).

[3] = test system: Pan CD3+ T cells; experiment: CD8+/CD4+ phenotype by flow cytometry after 10 days with 2-DG; format: cell-based, human; settings: for CD8+ T cell population (frequency): day 10
Experimental: as §1, with “IN). Phenotype: Primary human T cells were expanded for 10 days with and without 2-DG and 5% human AB serum. DYNABEADS® were removed from 2×10^6 cells by magnetic separation. Surface staining was performed with antibodies against CD3 (Invitrogen, Cat. No. CD0329), CD4 (Molecular Probes, Cat. No. A15858), CD8 (Invitrogen, Cat. No. MHCD0828). Flow cytometric analysis was performed on a Gallios flow cytometer and Kaluza software (Beckman Coulter, Indianapolis IN).” for “IN).”

[4] = test system: Primary human T cells; experiment: CD8+/CD4+ phenotype with 2-DG and CD Lipid Concentrate 1 or 2; format: cell-based
Experimental: FIGS. 48 and 49 represent the data from Tables 42 and 43 which depicts the gating strategy for differentiation phenotyping. T cells expanded for 10 days were stained with antibodies against CD3, CD4, and CD8. Flow cytometric analysis was performed in a Beckman-Coulter Gallios analyzer.
as §1
FIGS. 48 and 49 represent the fold increase in CD8:CD4 ratio compared to day 0.

[5] = 0.25 mM 2-DG at Day 0, Day 10 of culture
[6] = 0.25 mM 2-DG at Day 0, after 10 days of culture
[7] = 0.25 mM 2-DG at Day 3, Day 10 of culture
[8] = 0.25 mM 2-DG at Day 3, after 10 days of culture
[9] = 0.25 mM 2-DG at Day 5, Day 10 of culture
[10] = 0.25 mM 2-DG at Day 5, after 10 days of culture
[11] = 0.25 mM 2-DG at Day 7, Day 10 of culture
[12] = 0.25 mM 2-DG at Day 7, after 10 days of culture
[13] = 0.25 mM 2-DG at Every Feed, Day 10 of culture
[14] = 0.25 mM 2-DG at Every Feed, after 10 days of culture
[15] = 0.25 mM 2-DG, Day 10 of culture
[16] = 0.25 mM 2-DG, Day 10, single donors
[17] = 0.5 mM 2-DG, Day 10, single donors

O=CC[C@@H](O)[C@H](O)[C@H](O)CO [2-DG, 2-Deoxy-D-Glucose]
% CD4+ [1, 5]: 74.78% | % CD8+ [1, 5]: 22.88% | % Ratios (CD8+/CD4+) [1, 5]: 0.31 | Fold Increase compared to Baseline ([1]; 0.25 mM 2-DG at Day 0): 1.38 | % CD4+ [1, 6]: 74.78% | % CD8+ [1, 6]: 22.88% | % Ratios (CD8+/CD4+) [1, 6]: 0.31 | % CD4+ [1, 7]: 70.62% | % CD8+ [1, 7]: 25.76% | % Ratios (CD8+/CD4+) [1, 7]: 0.36 | Fold Increase compared to Baseline ([1]; 0.25 mM 2-DG at Day 3): 1.64 | % CD4+ [1, 8]: 70.62% | % CD8+ [1, 8]: 25.76% | % Ratios (CD8+/CD4+) [1, 8]: 0.36 | % CD4+ [1, 9]: 76.18% | % CD8+ [1, 9]: 21.26% | % Ratios (CD8+/CD4+) [1, 9]: 0.28 | Fold Increase compared to Baseline ([1]; 0.25 mM 2-DG at Day 5): 1.26 | % CD4+ [1, 10]: 76.18% | % CD8+ [1, 10]: 21.26% | % Ratios (CD8+/CD4+) [1, 10]: 0.28 | % CD4+ [1, 11]: 73.28% | % CD8+ [1, 11]: 23.91% | % Ratios (CD8+/CD4+) [1, 11]: 0.33 | Fold Increase compared to Baseline ([1]; 0.25 mM 2-DG at Day 7): 1.47 | % CD4+ [1, 12]: 73.28% | % CD8+ [1, 12]: 23.91% | % Ratios (CD8+/CD4+) [1, 12]: 0.33 | % CD4+ [1, 13]: 76.76% | % CD8+ [1, 13]: 20.35% | % Ratios (CD8+/CD4+) [1, 13]: 0.27 | Fold Increase compared to Baseline ([1]; 0.25 mM 2-DG at Every Feed): 1.19 | % CD4+ [1, 14]: 76.76% | % CD8+ [1, 14]: 20.35% | % Ratios (CD8+/CD4+) [1, 14]: 0.27 | Fold Increase in CD8+ to CD4+ ratio ([1]; 0.25 mM 2-DG every time cells were fed): 3 fold | Fold Increase in CD8+ to CD4+ ratio ([1]; 0.25 mM 2-DG on day 7 only): 3 fold | % CD4+ (Avg) ([2]; Day 10): 59.69% | % CD8+ (Avg) ([2]; Day 10): 36.66% | % Ratios (CD8+/CD4+) ([2]; Day 10): 2.07 | % CD4+ ([2]; Day 10, replicates): 25.82% and 25.23% | % CD8+ ([2]; Day 10, replicates): 52.71% and 53.26% | Fold Increase compared to Baseline ([2]; Day 10 vs Day 0): 3.38 | % CD4+ [3, 15]: 39.21% and 32.39% and 22.68% | % CD8+ [3, 15]: 53.46% and 63.2% and 70.32% | % Ratios (CD8+/CD4+) (Avg) ([3]; 0.25 mM 2-DG, Day 10 of culture, average): 2.1 | Fold Increase compared to Baseline ([3]; 0.25 mM 2-DG, Day 10 vs Day 0 CD8+/CD4+ ratio): 3.02 and 2.49 and 3.99 | % Ratios (CD8+/CD4+) (Avg) ([3]; 0.25 mM 2-DG, Day 10): 2.1 | % CD4+ [3, 16]: 39.21% and 32.39% and 22.68% | % CD8+ [3, 16]: 53.46% and 63.2% and 70.32% | % Ratios (CD8+/CD4+) [3, 16]: 1.36 and 1.95 and 3.10 | Fold Increase (Avg) ([3]; 0.25 mM 2-DG, Day 10 vs Day 0): 3.2 | Fold Increase in CD8+ to CD4+ ratio ([3]; 0.25 mM 2-DG, Day 10 vs Day 0, single donors): 3.02 and 2.49 and 3.99 | CD8+ T cell population (frequency) ([3]; 0.25 mM and 0.5 mM 2-DG, single donor): 48% | % CD4+ ([3]; 0.5 mM 2-DG, Day 10 of culture): 37.08% and 29.85% and 23.85% | % CD8+ ([3]; 0.5 mM 2-DG, Day 10 of culture): 55.04% and 66.57% and 68.64% | % Ratios (CD8+/CD4+) ([3]; 0.5 mM 2-DG, Day 10 of culture): 1.48 and 2.23 and 2.88 | % Ratios (CD8+/CD4+) (Avg) ([3]; 0.5 mM 2-DG, Day 10 of culture, average): 2.2 | Fold Increase compared to Baseline ([3]; 0.5 mM 2-DG, Day 10 vs Day 0 CD8+/CD4+ ratio): 3.29 and 2.85 and 3.7 | % Ratios (CD8+/CD4+) (Avg) ([3]; 0.5 mM 2-DG, Day 10): 2.2 | % CD4+ [3, 17]: 37.08% and 29.85% and 23.85% | % CD8+ [3, 17]: 55.04% and 66.57% and 68.64% | % Ratios (CD8+/CD4+) [3, 17]: 1.48 and 2.23 and 2.88 | Fold Increase (Avg) ([3]; 0.5 mM 2-DG, Day 10 vs Day 0): 3.6 | Fold Increase in CD8+ to CD4+ ratio ([3]; 0.5 mM 2-DG, Day 10 vs Day 0, single donors): 3.29 and 2.85 and 3.7 | % CD4+ ([3]; 1 mM 2-DG, Day 10, Table 26): 50% | % CD8+ ([3]; 1 mM 2-DG, Day 10, Table 26): 42% | % Ratios (CD8+/CD4+) ([3]; 1 mM 2-DG, Day 10, Table 26): 0.85 | Fold Increase compared to Baseline ([3]; 1 mM 2-DG, Day 10 vs Day 0, Table 26): 2.18 | % CD4+ ([3]; 2 mM 2-DG, Day 10, Table 26): 42% | % CD8+ ([3]; 2 mM 2-DG, Day 10, Table 26): 50% | % Ratios (CD8+/CD4+) ([3]; 2 mM 2-DG, Day 10, Table 26): 1.18 | Fold Increase compared to Baseline ([3]; 2 mM 2-DG, Day 10 vs Day 0, Table 26): 3.01 | Fold Increase in CD8+ to CD4+ ratio ([3]; 4 mM 2-DG, 10 days): 4.1 fold | % CD4+ ([3]; 4 mM 2-DG, Day 10, Table 26): 23% | % CD8+ ([3]; 4 mM 2-DG, Day 10, Table 26): 63% | % Ratios (CD8+/CD4+) ([3]; 4 mM 2-DG, Day 10, Table 26): 2.80 | Fold Increase compared to Baseline ([3]; 4 mM 2-DG, Day 10 vs Day 0, Table 26): 7.15 | CD8+ T cell population (frequency) ([3]; 4 mM 2-DG): 63% | fold increase in CD8:CD4 ratio compared to day 0 ([4]; 2-DG with CLC1): 1.6 fold | fold increase in CD8:CD4 ratio compared to day 0 ([4]; 2-DG with CLC2): 1.4 fold
